# From US20140057284A1, “PHOTOLUMINESCENT MOLECULAR COMPLEX AND METHOD FOR DETERMINING OF THE CONCENTRATION OF SAID MOLECULAR COMPLEX” (priority 2011, published 2014)
# Target: catalytic subunit of cAMP-dependent protein kinase (PKAc) (Homo sapiens, UniProt P17612)
# Test: Binding affinity to PKAc
# Settings: PKAc and some other PKs of the AGC group; in words
row,SMILES,affinity of binding to PKAc
1,N=C(N)NCCC[C@@H](NC(=O)CCCCCNC(=O)c1ccc(-c2ccnc(N)n2)s1)C(=O)NCCCCCC(=O)N[C@H](CCCNC(=N)N)C(=O)N[C@H](CCCNC(=N)N)C(=O)N[C@H](CCCNC(=N)N)C(=O)N[C@H](CCCNC(=N)N)C(=O)N[C@H](CCCNC(=N)N)C(=O)N[C@H](CCCNC(=N)N)C(=O)N[C@H](CCCCN)C(N)=O [ARC-668],subnanomolar or low nanomolar
2,N=C(N)NCCC[C@@H](NC(=O)CCCCCNC(=O)c1ccc(-c2ccnc(N)n2)s1)C(=O)NCCCCCC(=O)N[C@H](CCCNC(=N)N)C(=O)N[C@H](CCCNC(=N)N)C(=O)N[C@H](CCCNC(=N)N)C(=O)N[C@H](CCCNC(=N)N)C(=O)N[C@H](CCCNC(=N)N)C(=O)N[C@H](CCCNC(=N)N)C(=O)N[C@H](CCCCNc1ccc([N+](=O)[O-])c2nonc12)C(N)=O [ARC-676],subnanomolar or low nanomolar
3,N=C(N)NCCC[C@@H](NC(=O)CCCCCNC(=O)c1ccc(-c2ccnc(N)n2)[se]1)C(=O)NCCCCCC(=O)N[C@H](CCCNC(=N)N)C(=O)N[C@H](CCCNC(=N)N)C(=O)N[C@H](CCCNC(=N)N)C(=O)N[C@H](CCCNC(=N)N)C(=O)N[C@H](CCCNC(=N)N)C(=O)N[C@H](CCCNC(=N)N)C(=O)N[C@H](CCCCN)C(N)=O [ARC-1138],subnanomolar or low nanomolar
4,N=C(N)NCCC[C@@H](NC(=O)CCCCCNC(=O)c1ccc(-c2ccncn2)s1)C(=O)NCCCCCC(=O)N[C@H](CCCNC(=N)N)C(=O)N[C@H](CCCNC(=N)N)C(=O)N[C@H](CCCNC(=N)N)C(=O)N[C@H](CCCNC(=N)N)C(=O)N[C@H](CCCNC(=N)N)C(=O)N[C@H](CCCNC(=N)N)C(=O)N[C@H](CCCCN)C(N)=O [ARC-1129],subnanomolar or low nanomolar

# Second part, the compound after the results:
row,affinity of binding to PKAc,SMILES
1,subnanomolar or low nanomolar,N=C(N)NCCC[C@@H](NC(=O)CCCCCNC(=O)c1ccc(-c2ncnc3[nH]cnc23)s1)C(=O)NCCCCCC(=O)N[C@H](CCCNC(=N)N)C(=O)N[C@H](CCCNC(=N)N)C(=O)N[C@H](CCCNC(=N)N)C(=O)N[C@H](CCCNC(=N)N)C(=O)N[C@H](CCCNC(=N)N)C(=O)N[C@H](CCCNC(=N)N)C(=O)N[C@H](CCCCN)C(N)=O [ARC-1132]
2,subnanomolar or low nanomolar,N=C(N)NCCC[C@@H](NC(=O)CCCCCNC(=O)c1ccc(-c2ncnc3[nH]ccc23)s1)C(=O)NCCCCCC(=O)N[C@H](CCCNC(=N)N)C(=O)N[C@H](CCCNC(=N)N)C(=O)N[C@H](CCCNC(=N)N)C(=O)N[C@H](CCCNC(=N)N)C(=O)N[C@H](CCCNC(=N)N)C(=O)N[C@H](CCCNC(=N)N)C(=O)N[C@H](CCCCN)C(N)=O [ARC-1135]
3,subnanomolar or low nanomolar,Cc1nccc(-c2ccc(C(=O)NCCCCCC(=O)N[C@H](CCCNC(=N)N)C(=O)NCCCCCC(=O)N[C@H](CCCNC(=N)N)C(=O)N[C@H](CCCNC(=N)N)C(=O)N[C@H](CCCNC(=N)N)C(=O)N[C@H](CCCNC(=N)N)C(=O)N[C@H](CCCNC(=N)N)C(=O)N[C@H](CCCNC(=N)N)C(=O)N[C@H](CCCCN)C(N)=O)s2)n1 [ARC-1123]
4,subnanomolar or low nanomolar,N=C(N)NCCC[C@@H](NC(=O)[C@@H](CCCNC(=N)N)NC(=O)CCCCCNC(=O)[C@@H](CCCCN)NC(=O)CCCCCNC(=O)c1ccc(-c2ccncc2)s1)C(N)=O [ARC-1121]

# Target: PKAc (Homo sapiens, UniProt P17612)
# Test: Measurement of dissociation kinetics of inhibitor-kinase complexes with ARC-1063
# Assay type: binding
# Settings: inhibitor 5-10 nM, PKAc 10 nM, 27° C., ARC-1063 100-300 nM
# Procedure: Measurements of dissociation kinetics of non-labeled inhibitors from the inhibitor-kinase complexes (residence time) were carried out by mixing the solution of the examined inhibitor (5-10 nM) with PKAc (10 nM), and incubation of the solution for 15 min at 27° C., followed by addition of a high concentration of the luminescent probe ARC-1063 (final concentration of 100-300 nM), and measurement of the luminescence signal at 5 s time intervals (FIG. 10). The collected data were fitted to the first-order kinetic model yielding the dissociation rate constants for the examined inhibitors.
row,SMILES,Dissociation half-lives of PKAc complexes
1,CN[C@@H]1C[C@H]2O[C@@](C)([C@@H]1OC)n1c3ccccc3c3c4c(c5c6ccccc6n2c5c31)C(=O)NC4 [staurosporine],12 s

# Test system: PKAc in living C9H6 cells
# Test: Monitoring of kinase activity in living cells loaded with ARC-1139
# Assay type: cell-based
# Settings: H89 100 μM added after Forskolin
# Procedure: CHO, C9H6 and HEK cells were cultured in F12 Nutrient Mixture supplemented with 10% fetal bovine serum, 2 mM L-glutamine, 100 U/ml penicillin and 100 μg/ml streptomycin at 37° C. in humidified atmosphere containing 5% CO2. In case of C9H6 cells, 300 μg/ml of Zeocine™ and 800 μg/ml of Geneticin® were additionally introduced to the nutrient mixture. Cells were seeded to 96-well plates (for plate reader experiments) and grown to 60%-80% confluency. The medium was replaced with fresh serum-free medium containing the luminescent probe ARC-1139 (10 μM) and incubated for 1 hour at 37° C. Subsequently, the cells were washed three times with PBS and analyzed on a PheraStar platereader with TRF optic modules [ex. 337(50) nm, em. 675(50) and 620(20) nm] using the time-resolved fluorescence measurement mode. Forskolin (final concentration of 25 μM) and H89 (final concentration of 100 μM) were added to the cells during the measurement (after 3 min and 7 min from the start of data acquisition, respectively)
row,SMILES,luminescence from live cells loaded with ARC-1139 after Forskolin
1,O=S(=O)(NCCNC/C=C/c1ccc(Br)cc1)c1cccc2cnccc12 [H89],signal decreased
